Reference: patent publication US9320271B2, “Microbial composition” (Rohm and Haas Company, priority 2011, dated 2016)
“And” between values parts separate entries of the source, which are not always exact repeats. Equal entries are not always repeated.

System: Escherichia coli (E. coli—ATCC #10536)
Assay: Synergy test: high resolution MBC microtiter plate assay, phosphate buffer containing 35% dipropylene glycol, 15 seconds contact
Type: cell-based
Conditions: E. coli 10536; for MBC of the component acting alone (QA / QB; Qa or Qb where the other component is 0): complete kill in 15 seconds

Cc1ccc(C(C)C)c(O)c1O [3-isopropyl-6-methylbenzene-1,2-diol]
SI (Synergy Index) (at Qa and Qb, less than one = synergy): 1.00
MBC of the component acting alone (QA / QB; Qa or Qb where the other component is 0): 1.0 weight % and 0.8 weight %
MBC of the component acting alone (QA / QB; Qa or Qb where the other component is 0) (listed as 3-isopronyl-6-methylbenzene-1,2-diol): 0.8 weight %
